Changes are numbered by the printed parent chain. Read-outs that look alike come from different tables or passages of the source. A value given as a limit tells only on which side of the number the result lay.

In one assay the target is T1, LCAT R244A (Homo sapiens, UniProt P04180, R268A).
T1 construct: hydrolysis of 4-methylumbelliferyl palmitate (MUP) by full-length LCAT; made in house; host or cells: HEK293F (transient transfection, secreted)
T1 sequence (P04180 25-440 R268A): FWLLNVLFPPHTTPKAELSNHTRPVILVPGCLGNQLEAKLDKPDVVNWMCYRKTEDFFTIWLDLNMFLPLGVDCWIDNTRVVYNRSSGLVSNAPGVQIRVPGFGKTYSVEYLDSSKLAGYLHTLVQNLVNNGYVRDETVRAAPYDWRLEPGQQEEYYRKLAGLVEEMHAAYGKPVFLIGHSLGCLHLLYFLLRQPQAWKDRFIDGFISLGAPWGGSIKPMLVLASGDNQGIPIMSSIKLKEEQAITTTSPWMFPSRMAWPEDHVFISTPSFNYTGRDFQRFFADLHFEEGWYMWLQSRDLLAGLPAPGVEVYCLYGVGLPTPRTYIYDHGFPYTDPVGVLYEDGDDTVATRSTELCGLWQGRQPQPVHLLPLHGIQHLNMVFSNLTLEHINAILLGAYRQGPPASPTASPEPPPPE
Put plainly: MUP hydrolysis (esterase) assay. The assay is classed as biochemical. The method, then:
(§1) The lipase activity of LCAT was measured using MUP as a substrate. The assay was performed at room temperature in 0.1 M sodium phosphate buffer, pH 7.4 containing 0.01% Triton X-100. 4 μL of LCAT (6 nM final concentration) were dispensed into a 1536-well Greiner solid black plate. The same volume of assay buffer was dispensed into column 1 and 2 for a no-enzyme control. Then 23 nL DMSO or compounds titrated at 11-point 1:3 dilution series starting at 10 mM were transferred using a pintool. After 15 min incubation, 2 μL MUP (16 μM final concentration) was added to initiate the reaction. The hydrolysis of MUP was monitored using a ViewLux plate reader (excitation 380 nm/emission 450 nm) for 20 min. The fluorescence signal was normalized against no-activator and no-enzyme control after subtraction of background signal (t = 0 min). To plot percent activation, in each assay 100% was set at the rate of LCAT or LCAT variant without compound. The resulting data were fitted to a sigmoidal dose response curve.

A further assay addresses T2, LCAT R244H (Homo sapiens, UniProt P04180, R268H).
T2 construct: hydrolysis of 4-methylumbelliferyl palmitate (MUP) by full-length LCAT; made in house; host or cells: HEK293F (transient transfection, secreted)
T2 sequence (P04180 25-440 R268H): T1 sequence (P04180 25-440 R268A) with A244H
Kind of assay: MUP hydrolysis (esterase) assay. The assay is classed as biochemical. On the procedure:
as §1

The target of another assay is T3, ∆N∆C-IDFP LCAT (Homo sapiens, UniProt P04180).
T3 construct: ∆N∆C-LCAT (residues 21–397), a truncation variant that lacks the dynamic N- and C-termini; made in house; host or cells: HEK293F
T3 sequence (P04180 45-421): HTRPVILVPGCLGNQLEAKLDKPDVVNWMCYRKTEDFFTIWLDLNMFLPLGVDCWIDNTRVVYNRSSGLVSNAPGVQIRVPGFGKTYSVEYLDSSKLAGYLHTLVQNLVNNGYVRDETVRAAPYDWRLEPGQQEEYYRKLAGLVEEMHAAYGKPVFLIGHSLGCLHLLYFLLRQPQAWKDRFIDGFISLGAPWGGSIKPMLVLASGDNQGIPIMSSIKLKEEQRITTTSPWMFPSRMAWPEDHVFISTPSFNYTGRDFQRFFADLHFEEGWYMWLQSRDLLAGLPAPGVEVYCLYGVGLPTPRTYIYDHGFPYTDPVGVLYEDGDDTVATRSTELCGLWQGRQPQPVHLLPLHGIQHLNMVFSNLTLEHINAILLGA
Put plainly: Differential scanning fluorimetry. The assay is classed as binding. The method, then:
(§2) Tm values were determined using an Applied Biosystems QuantStudio 7 Flex qPCR machine with two replicates performed at least in triplicate. LCAT at 0.05 mg mL^−1 was diluted into reaction buffer containing 5X Sypro Orange in a final volume of 10 μL in 384-well PCR plates. DMSO or compound 1 was added so that all reactions contained 3% DMSO. The reactions were run from 25–95 °C with a ramp rate of 0.03 °C s^−1. Tm values were determined as the derivative using Protein Thermal Shift software. Significance was determined using a one-way analysis of variance followed by Tukey’s multiple comparisons post-test in GraphPad Prism.
On the technique in general: DSF heats the sample and reads unfolding from a dye or from intrinsic fluorescence.

The next assay concerns the target T4, ∆N∆C-LCAT (Homo sapiens, UniProt P04180).
T4 construct: ∆N∆C-LCAT (residues 21–397), a truncation variant that lacks the dynamic N- and C-termini; made in house; host or cells: HEK293F
T4 sequence (P04180 45-421): T3 sequence (P04180 45-421)
Put plainly: Differential scanning fluorimetry. The format is binding. Conditions: for Thermal stabilization (DSF): ∆N∆C LCAT. On the procedure: as §2

Setting [1] is: compound titrated from 0.04 to 9.5 μM.
[2] abbreviates: compound titrated from 0.04 to 9.5 μM, read-out: MUP assay EC50.
Setting [3] is: read-out: EC50, MUP esterase assay.

As a reminder, the EC50 is the concentration needed to bring the measured effect to its halfway point. On to `O=C1CC(O)(C(F)(F)F)c2c(C3CCN(c4cnc(C(F)(F)F)cn4)CC3)n[nH]c2N1` (stereo not drawn) [compound 2, 4-Hydroxy-4-(trifluoromethyl)−3-(1-(5-(trifluoromethyl)pyrazin-2-yl)piperidin-4-yl)−4,5-dihydro-1H-pyrazolo[3,4-b]pyridin-6(7H)-one], for which the “Fold activation, MUP esterase assay” value on LCAT R244A (setting [1]) was 1.9 ± 0.2 fold; at LCAT R244H (setting [1]), 1.8 ± 0.1 fold. The results for the 50% effective concentration (EC50) on LCAT R244A (setting [2]) and at LCAT R244H (setting [2]) were 270 ± 40 nM and 320 ± 30 nM, respectively. Moreover, the “Thermal stabilization (DSF)” value at ∆N∆C-IDFP LCAT and at ∆N∆C-LCAT was “stabilize” each time.

`N#Cc1cnc(N2CCC(c3n[nH]c4c3C(O)(C(F)(F)F)CC(=O)N4)CC2)cc1C(F)(F)F` (stereo not drawn) [compound 1, 6-(4-(4-Hydroxy-6-oxo-4-(trifluoromethyl)−4,5,6,7-tetrahydro-1H-pyrazolo[3,4-b]pyridin-3-yl)piperidin-1-yl)−4-(trifluoromethyl)nicotinonitrile]: the “Fold activation, MUP esterase assay” value on LCAT R244A (setting [1]) stood at 1.7 ± 0.4 fold; on LCAT R244H (setting [1]), 1.6 ± 0.3 fold. Besides, the EC50 is 130 ± 20 nM on LCAT R244A (setting [2]), roughly 150 nM on LCAT R244A (setting [3]), 160 ± 30 nM on LCAT R244H (setting [2]) and roughly 150 nM on LCAT R244H (setting [3]). Also, the “Thermal stabilization (DSF)” value on ∆N∆C-IDFP LCAT and at ∆N∆C-LCAT was “stabilize” throughout. Moreover, the “∆Tm of ∆N∆C-LCAT” value on ∆N∆C-LCAT (compound 1 and IDFP combined, additive effect) is recorded as 12.7 ˚C.

Consider `O=C1CC(O)(C(F)(F)F)c2c(ncn2C2CCNCC2)N1` (stereo not drawn) [compound 6, 7-Hydroxy-1-(piperidin-4-yl)−7-(trifluoromethyl)−6,7-dihydro-1H-imidazo[4,5-b]pyridin-5(4H)-one], for which the “Fold activation, MUP esterase assay” value at LCAT R244A (setting [1]) and at LCAT R244H (setting [1]) was “no effect” in each case. Also, the “MUP assay EC50” value at LCAT R244A (setting [1]) and at LCAT R244H (setting [1]) was “no effect” each time.

As to `O=C1CC(O)(C(F)(F)F)c2c(ncn2C2CCN(c3cnc(C(F)(F)F)cn3)CC2)N1` (stereo not drawn) [compound 3, 7-Hydroxy-7-(trifluoromethyl)−1-(1-(5-(trifluoromethyl)pyrazin-2-yl)piperidin-4-yl)−6,7-dihydro-1H-imidazo[4,5-b]pyridin-5(4H)-one], the entries for the “Fold activation, MUP esterase assay” value at LCAT R244A (setting [1]) and at LCAT R244H (setting [1]) were 1.9 ± 0.2 fold and 1.8 ± 0.1 fold, respectively. In addition, the half-maximal effective concentration (EC50) was found to be 400 ± 30 nM on LCAT R244A (setting [2]) and 470 ± 50 nM on LCAT R244H (setting [2]). For the same compound, the “Thermal stabilization (DSF)” value on ∆N∆C-IDFP LCAT and at ∆N∆C-LCAT was “stabilize” each time.

`O=c1cc(C(F)(F)F)c2c(ncn2C2CCN(c3cnc(C(F)(F)F)cn3)CC2)[nH]1` [compound 8, 7-(trifluoromethyl)−1-(1-(5-(trifluoromethyl)pyrazin-2-yl)piperidin-4-yl)−1H-imidazo[4,5-b]pyridin-5(4H)-one]: the “Fold activation, MUP esterase assay” value was 3.2 ± 0.8 fold at LCAT R244A (setting [1]) and 2.8 ± 0.6 fold at LCAT R244H (setting [1]). Also, the 50% effective concentration (EC50) on LCAT R244A (setting [2]) and at LCAT R244H (setting [2]) was greater than 10000 nM each time.

Turning to `O=C1CC(O)(C(F)(F)F)c2c(C3CCN(c4cnc(C(F)(F)F)cn4)CC3)noc2N1` (stereo not drawn) [compound 9, 4-hydroxy-4-(trifluoromethyl)−3-(1-(5-(trifluoromethyl)pyrazin-2-yl)piperidin-4-yl)−4,5-dihydroisoxazolo[5,4-b]pyridin-6(7H)-one], the “Fold activation, MUP esterase assay” value on LCAT R244A (setting [1]) was found to be 1.2 ± 0.1 fold; on LCAT R244H (setting [1]), 1.3 ± 0.06 fold. For the same compound, the figures for the concentration giving a half-maximal response (EC50) on LCAT R244A (setting [2]) and on LCAT R244H (setting [2]) were 6200 ± 800 nM and 7600 ± 1000 nM, respectively.

These data come from article PMC6277198, “Molecular basis for activation of lecithin:cholesterol acyltransferase by a compound that increases HDL cholesterol” (eLife, 2018).
